Laboratory results from ChEMBL document CHEMBL1201862, “PubChem BioAssay data set” (2004).
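All cell lines were grown in 96-well plates and treated with compound for 48 hours. The concentration for 50% growth inhibition is given as GI50.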 Calls of active or inactive are those of the source. Rule as the data show it: active = GI50 up to about 1.1 µM and inactive = higher.

Assays:
Assay in all cases: DTP human tumour cell line panel, 48 h
[1] = test system: K562
[2] = test system: SNB-75
[3] = test system: 786-0
[4] = test system: Malme-3M
[5] = test system: SK-MEL-5
[6] = test system: SW-620
[7] = test system: HCT-15
[8] = test system: COLO 205
[9] = test system: NCI/ADR-RES
[10] = test system: SN12C
[11] = test system: HCT-116
[12] = test system: RPMI-8226
[13] = test system: UACC-257
[14] = test system: OVCAR-5
[15] = test system: LOX IMVI
[16] = test system: SF-539
[17] = test system: RXF 393
[18] = test system: CAKI-1
[19] = test system: MDA-MB-435
[20] = test system: M19-MEL

Compound | GI50 [1] | GI50 [2] | GI50 [3] | GI50 [4] | GI50 [5] | GI50 [6] | GI50 [7] [µM] | GI50 [8] | GI50 [9] | GI50 [10] | GI50 [11] | GI50 [12] | GI50 [13] | GI50 [14] | GI50 [15] | GI50 [16] | GI50 [17] | GI50 [18] | GI50 [19] | GI50 [20]
Cc1ccc(C)c(NC(=O)NCc2ccc(Cl)cc2)c1 | 47.5 µM (inactive) | 2.24 µM (inactive) | 20.6 µM (inactive) | 26.8 µM (inactive) | > 70.5 µM (inactive) | 50.7 µM (inactive) | > 100 | > 100 µM (inactive) | > 58.1 µM (inactive) | 36.3 µM (inactive) | 35.3 µM (inactive) | 37.2 µM (inactive) | 39.7 µM (inactive) | 56.1 µM (inactive) | > 100 µM (inactive) | > 100 µM (inactive) | 8.89 µM (inactive) | 27.2 µM (inactive) | > 100 µM (inactive) | –
Brc1ccc2c(-c3nc(-c4c[nH]c5ccccc45)cs3)c[nH]c2c1 | 13.1 µM (inactive) | 37.4 µM (inactive) | 21 µM (inactive) | > 100 µM (inactive) | 22.1 µM (inactive) | 35.4 µM (inactive) | 16.8 | 19.4 µM (inactive) | 27 µM (inactive) | 42.9 µM (inactive) | 23.8 µM (inactive) | 12.1 µM (inactive) | 69.2 µM (inactive) | 31.9 µM (inactive) | 10.4 µM (inactive) | 15.6 µM (inactive) | 17.6 µM (inactive) | 30.9 µM (inactive) | 34.6 µM (inactive) | –
Cc1nnc(Sc2nc(C#N)c(C#N)nc2Sc2nnc(C)s2)s1 | 3.48 µM (inactive) | 28.6 µM (inactive) | 4.13 µM (inactive) | 0.139 µM (active) | 20.6 µM (inactive) | 1.67 µM (inactive) | 2.6 | 4.84 µM (inactive) | 17.7 µM (inactive) | 9.33 µM (inactive) | 10.3 µM (inactive) | 2.5 µM (inactive) | 10.4 µM (inactive) | 17.2 µM (inactive) | 2.72 µM (inactive) | 12 µM (inactive) | 1.92 µM (inactive) | 2.32 µM (inactive) | 12.7 µM (inactive) | –
COc1ccc(/C(=N\NC(=O)C(=O)NN)C(c2ccc(OC)cc2)C2(O)C(=O)Nc3ccccc32)cc1 (centres undefined) | 26.7 µM (inactive) | > 100 µM (inactive) | 28.1 µM (inactive) | 42.7 µM (inactive) | 22.4 µM (inactive) | > 100 µM (inactive) | 94.8 | > 100 µM (inactive) | – | 57.8 µM (inactive) | > 100 µM (inactive) | 69.7 µM (inactive) | – | > 100 µM (inactive) | – | 80.7 µM (inactive) | – | > 100 µM (inactive) | – | > 100 µM (inactive)
C/C(=N\NC(=S)N1CCN(c2ccccn2)CC1)c1cccc2cccnc12 | 2.46 µM (inactive) | 13.1 µM (inactive) | 4.29 µM (inactive) | 4.76 µM (inactive) | 2.46 µM (inactive) | 4.33 µM (inactive) | 3.68 | 3.02 µM (inactive) | 3.35 µM (inactive) | 4.07 µM (inactive) | 2.39 µM (inactive) | 2.29 µM (inactive) | 2.84 µM (inactive) | 4.9 µM (inactive) | 3.59 µM (inactive) | 4.11 µM (inactive) | 3.33 µM (inactive) | 6.32 µM (inactive) | 6.31 µM (inactive) | –
N#CCCN(c1ccc(C=O)cc1)S(=O)(=O)c1ccccc1 | > 100 µM (inactive) | 61.9 µM (inactive) | > 100 µM (inactive) | > 100 µM (inactive) | > 100 µM (inactive) | > 100 µM (inactive) | > 100 | – | – | > 100 µM (inactive) | > 100 µM (inactive) | > 100 µM (inactive) | > 100 µM (inactive) | > 100 µM (inactive) | > 100 µM (inactive) | > 100 µM (inactive) | – | > 100 µM (inactive) | – | > 100 µM (inactive)
COc1cccc2c1C(=O)C1=C(C2=O)C(O)CC(C)(C)O1 (centres undefined) | 21 µM (inactive) | > 100 µM (inactive) | 42.4 µM (inactive) | 16.6 µM (inactive) | 14.4 µM (inactive) | 34.1 µM (inactive) | 38.6 | 23.5 µM (inactive) | 28.7 µM (inactive) | 32.5 µM (inactive) | 24 µM (inactive) | 22.3 µM (inactive) | 22.4 µM (inactive) | 58.9 µM (inactive) | 24.3 µM (inactive) | 37.9 µM (inactive) | 71 µM (inactive) | 50.7 µM (inactive) | 20 µM (inactive) | –
CCOC(=O)C1C(C)C2(C#N)C(=N)OC1(C)C2(C#N)C#N (centres undefined) | 39.4 µM (inactive) | 27.6 µM (inactive) | 66.7 µM (inactive) | 77.3 µM (inactive) | 41.4 µM (inactive) | 84.7 µM (inactive) | 12.5 | > 100 µM (inactive) | > 100 µM (inactive) | 64.9 µM (inactive) | 76.7 µM (inactive) | 18.5 µM (inactive) | 42.1 µM (inactive) | > 100 µM (inactive) | 26.8 µM (inactive) | 47.2 µM (inactive) | 25.8 µM (inactive) | 53.6 µM (inactive) | 65.9 µM (inactive) | –
CCN(CC)CCn1c2c3ccccc3ccc2c2oc(=O)c3ccccc3c21 | > 100 µM (inactive) | 15.9 µM (inactive) | 22.9 µM (inactive) | > 100 µM (inactive) | – | > 100 µM (inactive) | > 100 | > 100 µM (inactive) | – | – | 88.5 µM (inactive) | > 100 µM (inactive) | > 100 µM (inactive) | > 100 µM (inactive) | > 100 µM (inactive) | 22.6 µM (inactive) | – | > 100 µM (inactive) | – | > 100 µM (inactive)
COC(=O)c1ccccc1/C=C1\Cc2ccc(C)c(C)c2C1=O | > 100 µM (inactive) | 35.4 µM (inactive) | 51.4 µM (inactive) | > 100 µM (inactive) | > 100 µM (inactive) | > 100 µM (inactive) | > 100 | > 100 µM (inactive) | > 100 µM (inactive) | > 100 µM (inactive) | > 100 µM (inactive) | > 100 µM (inactive) | > 100 µM (inactive) | > 100 µM (inactive) | > 100 µM (inactive) | > 100 µM (inactive) | > 100 µM (inactive) | > 100 µM (inactive) | > 100 µM (inactive) | –
Cc1cc2nc(N)n[n+]([O-])c2cc1C | > 100 µM (inactive) | > 10 µM (inactive) | > 100 µM (inactive) | > 100 µM (inactive) | > 100 µM (inactive) | > 100 µM (inactive) | > 100 | > 100 µM (inactive) | > 100 µM (inactive) | > 100 µM (inactive) | > 100 µM (inactive) | > 100 µM (inactive) | > 100 µM (inactive) | > 100 µM (inactive) | > 100 µM (inactive) | > 100 µM (inactive) | > 100 µM (inactive) | > 100 µM (inactive) | > 100 µM (inactive) | –
[N-]=[N+]=NCC1OC(n2cnc3c(N)ncnc32)C2OC12 (centres undefined) | > 100 µM (inactive) | > 100 µM (inactive) | > 100 µM (inactive) | > 100 µM (inactive) | > 100 µM (inactive) | > 100 µM (inactive) | > 100 | > 100 µM (inactive) | > 100 µM (inactive) | > 100 µM (inactive) | > 100 µM (inactive) | > 100 µM (inactive) | > 100 µM (inactive) | > 100 µM (inactive) | > 100 µM (inactive) | > 100 µM (inactive) | > 100 µM (inactive) | > 100 µM (inactive) | > 100 µM (inactive) | –
Nc1nc2cc(CNc3ccc(C(=O)NC(CCC(=O)O)C(=O)O)cc3)ccc2nc1-c1ccccc1 (centres undefined) | > 10 µM (inactive) | > 10 µM (inactive) | > 10 µM (inactive) | > 10 µM (inactive) | > 10 µM (inactive) | > 10 µM (inactive) | > 10 | > 10 µM (inactive) | > 10 µM (inactive) | > 10 µM (inactive) | > 10 µM (inactive) | > 10 µM (inactive) | > 10 µM (inactive) | > 10 µM (inactive) | > 10 µM (inactive) | > 10 µM (inactive) | > 10 µM (inactive) | > 10 µM (inactive) | > 10 µM (inactive) | –
CC(=O)NS(=O)(=O)c1ccc(NCc2cccc3c(=O)c4ccc(Cl)cc4oc23)cc1 | 6.14 µM (inactive) | 64 µM (inactive) | > 55.8 µM (inactive) | 26.4 µM (inactive) | 40.1 µM (inactive) | 34 µM (inactive) | 7.76 | > 57.7 µM (inactive) | 31.6 µM (inactive) | > 65.6 µM (inactive) | > 26.7 µM (inactive) | 11.2 µM (inactive) | > 56.6 µM (inactive) | > 100 µM (inactive) | > 33.2 µM (inactive) | 17.1 µM (inactive) | 20.4 µM (inactive) | 20.5 µM (inactive) | 38.3 µM (inactive) | –
CC1=[N+](C)CCCN1C | > 100 µM (inactive) | > 100 µM (inactive) | > 100 µM (inactive) | > 100 µM (inactive) | > 100 µM (inactive) | > 100 µM (inactive) | > 100 | > 100 µM (inactive) | > 100 µM (inactive) | > 100 µM (inactive) | > 100 µM (inactive) | > 100 µM (inactive) | > 100 µM (inactive) | > 100 µM (inactive) | > 100 µM (inactive) | > 100 µM (inactive) | > 100 µM (inactive) | > 100 µM (inactive) | > 100 µM (inactive) | –
